In brackets after ≈: the same amount, converted by molar mass. Activity calls are given as the source filed them. No cut-off for these calls is given here.
Columns and labels:
[1] = system: Aphis gossypii; test: Insecticidal activity against Aphis gossypii (cotton aphid) infested one week old Crookneck squash plants assessed as insect mortality at 50 ppm measured after 3 days post compound application under green house conditions; assay type: functional; conditions: 72 h
[2] = system: Heliothis virescens
[3] = system: Spodoptera exigua; test: Insecticidal activity against Spodoptera exigua second-instar larvae feeded on 400 ppm compound treated lepidopteran diet assessed as insect mortality measured 5 days post compound treatment under green house conditions; assay type: functional; conditions: at 400 ppm
[4] = system: Tetranychus urticae
[5] = system: Trichoplusia ni
[6] = system: Aphis gossypii
[7] = system: Bemisia tabaci
[8] = system: Spodoptera exigua
[9] = system: Bemisia tabaci; test: Insecticidal activity against Bemisia tabaci (sweet potato whitefly) second-instar larvae infested five weeks old cotton plants followed by compound 250 ppm compound spraying after insect oviposit assessed as insect mortality measured 13 days post compound treatment under green house conditions; assay type: functional
[10] = system: Heliothis virescens; test: Insecticidal activity against Heliothis virescens (tobacco budworm) second-instar larvae infested on 400 ppm compound pre-treated cotton cotyledon disk assessed as insect mortality measured 5 days post compound treatment under green house conditions; assay type: functional
[11] = system: Trichoplusia ni; test: Insecticidal activity against Trichoplusia ni (cabbage looper) second-instar larvae infested on 400 ppm compound pre-treated cabbage leaf disk assessed as insect mortality measured 5 days post compound treatment under green house conditions; assay type: functional; conditions: at 400 ppm
[12] = system: Tetranychus urticae; test: Insecticidal activity against female Tetranychus urticae (two-spotted spider mite) infested cotton leaf disks followed by 2.5 ppm compound spraying after oviposit assessed as insect mortality measured after 6 days post compound application under green house conditions; assay type: functional; conditions: foliar, 144 h
[13] = system: Myzus persicae; test: Insecticidal activity against Myzus persicae (green peach aphid) assessed as insect mortality at 50 ppm; assay type: functional
[14] = system: Aphis gossypii; test: Insecticidal activity against Aphis gossypii (cotton aphid) infested one week old Crookneck squash plants assessed as insect mortality measured after 3 days post compound application under green house conditions; assay type: functional; conditions: Aphis gossypii, 72 h

| Structure (SMILES) | mortality at 50 ppm [1] [%] | mortality [2] | mortality [3] [%] | mortality [4] | mortality [5] | mortality [6] | mortality [7] | mortality [8] | mortality [9] [%] | mortality [10] [%] | mortality [11] [%] | mortality at 2.5 ppm [12] [%] | LC50 [13] [µg/mL] | LC50 [14] [µg/mL] |
| --- | --- | --- | --- | --- | --- | --- | --- | --- | --- | --- | --- | --- | --- | --- |
| Cc1cc(C2=CCC(OC(F)(F)C(F)Br)CC2)sc1-c1nc(-c2c(F)cccc2Cl)nn1C (centres undefined) | < 50 | inactive | <50 | inactive | inactive | – | – | – | – | – | – | – | – | – |
| Cn1nc(-c2c(F)cccc2F)nc1-c1cc(-c2ccccc2)c(C(F)(F)F)s1 | – | inactive | 50 | inactive | inactive | inactive | – | – | – | – | – | – | – | – |
| Cn1nc(-c2c(F)cccc2F)nc1-c1ccc(-c2ccc(C(C)(F)F)cc2Cl)s1 | – | inactive | – | inactive | inactive | inactive | inactive | inactive | – | – | – | – | – | – |
| Cn1nc(-c2c(F)cccc2Cl)nc1-c1cc(Br)c(-c2cccc(OC(F)(F)F)c2)s1 | – | inactive | <50 | inactive | inactive | inactive | – | – | <50 | – | – | – | – | – |
| Cn1nc(-c2c(F)cccc2Cl)nc1-c1cc(Br)c(-c2ccc(OC(F)(F)F)cc2)s1 | – | – | – | – | – | inactive | – | inactive | <50 | 90 | 90 | 90 | – | – |
| Cc1ccc(-c2cc(Cl)c(-c3nc(-c4c(F)cccc4F)nn3C)s2)cc1 | – | – | – | – | inactive | inactive | inactive | inactive | – | 80 | – | 90 | – | – |
| Cc1cc(-c2ccc3c(c2)OC(F)(F)O3)sc1-c1nc(-c2c(F)cccc2Cl)nn1C | – | inactive | 80 | inactive | inactive | inactive | – | – | <50 | – | – | – | – | – |
| Cn1nc(-c2c(F)cccc2F)nc1-c1sc(-c2ccc(C(F)(F)F)cc2)cc1Cl | – | – | – | – | – | inactive | inactive | inactive | – | 90 | <50 | 90 | – | – |
| Cc1cc(C2=CCC(O)CC2)sc1-c1nc(-c2c(F)cccc2Cl)nn1C (centres undefined) | < 50 | – | – | inactive | inactive | – | – | inactive | <50 | <50 | – | – | – | – |
| Cn1nc(-c2c(F)cccc2Cl)nc1-c1cc(Br)c(-c2cccc(C(F)(F)F)c2)s1 | – | inactive | <50 | inactive | inactive | inactive | inactive | – | – | – | – | – | – | – |
| Cc1cc(C2CCC(OC(=O)C(F)(F)Br)CC2)sc1-c1nc(-c2c(F)cccc2Cl)nn1C (centres undefined) | – | inactive | <50 | inactive | inactive | inactive | – | – | – | – | – | – | – | – |
| Cc1sc(-c2nc(-c3c(F)cccc3Cl)nn2C)c(C)c1-c1ccc(O)cc1 | – | – | – | inactive | inactive | inactive | – | inactive | <50 | <50 | – | – | – | – |
| Cn1nc(-c2c(F)cccc2Cl)nc1-c1ccc(-c2cccc(C(F)(F)F)c2)s1 | – | inactive | – | inactive | inactive | inactive | inactive | inactive | – | – | – | – | – | – |
| Cc1cc(-c2ccc(Cl)c(Cl)c2)sc1-c1nc(-c2c(F)cccc2Cl)nn1C | – | inactive | 70 | inactive | – | inactive | inactive | – | – | – | 60 | – | – | – |
| Cc1ccc(-c2sc(-c3nc(-c4c(F)cccc4Cl)nn3C)cc2Br)cc1 | – | inactive | <50 | inactive | inactive | inactive | – | – | <50 | – | – | – | – | – |
| Cn1nc(-c2c(F)cccc2Cl)nc1-c1sc(-c2ccc(O)cc2)cc1Cl | < 50 | – | – | inactive | inactive | – | inactive | inactive | – | 60 | – | – | – | – |
| COc1ccc(-c2ccc(-c3nc(-c4c(F)cccc4F)nn3C)s2)cc1 | – | inactive | 90 | inactive | – | inactive | inactive | – | – | – | <50 | – | – | – |
| Cn1nc(-c2c(F)cccc2F)nc1-c1ccc(-c2ccc(F)c(F)c2)s1 | – | inactive | – | inactive | inactive | inactive | inactive | inactive | – | – | – | – | – | – |
| Cn1nc(-c2c(F)cccc2Cl)nc1-c1cc(Br)c(-c2ccc(C(F)(F)F)cc2)s1 | – | inactive | – | inactive | inactive | inactive | inactive | inactive | – | – | – | – | – | – |
| Cn1nc(-c2c(F)cccc2Cl)nc1-c1ccc(-c2ccc(C(F)(F)F)cc2)s1 | – | inactive | – | – | inactive | inactive | inactive | inactive | – | – | – | 80 | – | – |
| O=[N+]([O-])/N=C1\NCCN1Cc1ccc(Cl)nc1 [IMIDACLOPRID] | – | – | – | – | – | – | – | – | – | – | – | – | 1.7 (≈ 6.65 µM) | 0.05 (≈ 0.196 µM) |
| Cn1nc(-c2c(F)cccc2F)nc1-c1ccc(-c2ccc(OC(F)(F)F)cc2)s1 | – | – | – | inactive | – | inactive | inactive | inactive | – | 90 | 90 | – | – | – |
| Cn1nc(-c2c(F)cccc2Cl)nc1-c1ccc(-c2cccc(OC(F)(F)F)c2)s1 | – | inactive | <50 | inactive | – | inactive | inactive | – | – | – | 80 | – | – | – |
| Cc1ccc(-c2ccc(-c3nc(-c4c(F)cccc4Cl)nn3C)s2)cc1 | – | inactive | – | inactive | inactive | inactive | – | inactive | <50 | – | – | – | – | – |
| Cc1cc(C2CCC(O)CC2)sc1-c1nc(-c2c(F)cccc2Cl)nn1C (centres undefined) | – | – | – | inactive | inactive | inactive | – | inactive | 50 | <50 | – | – | – | – |
| Cn1nc(-c2c(F)cccc2Cl)nc1-c1ccc(-c2ccc(F)cc2)s1 | – | inactive | <50 | inactive | – | inactive | – | – | <50 | – | 80 | – | – | – |

— ChEMBL document CHEMBL3044558, “Structure-activity relationship development of dihaloaryl triazole compounds as insecticides and acaricides. 1. Phenyl thiophen-2-yl triazoles” (2007)
